Consider four molecules from paper PMC2932999 (Journal of Medicinal Chemistry, 2010).

Series [1] relates to wild type D197 NAs (B/Perth and B/Gifu). Format: biochemical, influenza B virus.
For series [2] the following is noted: in vivo; cited from earlier work.
Series [3] has as its target recombinant B/Perth/211/2001 wild type D197 neuraminidase heads (influenza B virus B/Perth/211/2001). Put plainly: negative-stain electron microscopy.
Series [4] concerns the target D197 Perth NA (B/Perth/211/2001 wild type neuraminidase) (Influenza B virus, UniProt Q3S340). Format: biochemical. The conditions noted are these: read-out: Km for MUNANA.
For series [5], the target named is D197 Gifu NA (B/Gifu/11/2005 wild type neuraminidase) (Influenza B virus, UniProt Q38G88). Format: biochemical. The conditions noted are these: read-out: Km for MUNANA.

In general, stoichiometry N refers to a count of units in the complex or per binding partner. As usually defined, the Km is the substrate concentration at which the rate is half of its maximum.

On to `CCC(CC)[C@H](NC(C)=O)[C@@H]1[C@H](O)[C@@H](C(=O)O)C[C@H]1NC(=N)N` [compound 3, peramivir], for which, in series [1], the “association of inhibitor with NA” value is reported as “slow association” and the “dissociation of inhibitor from NA” value is given as “slow dissociation”.
In the case of `CC(=O)N[C@H]1[C@H]([C@H](O)[C@H](O)CO)OC(C(=O)O)=C[C@@H]1NC(=N)N` [compound 1, zanamivir], in series [1], the “association of inhibitor with NA” value is “slow association” and the “dissociation of inhibitor from NA” value is reported as “slow dissociation”. Also, the “levels delivered to the upper respiratory tract” value in series [2] is given as “up to 10 000 nmol/L”.
With “recombinant B/Perth/211/2001 wild type D197 neuraminidase heads (enzyme)”, the stoichiometry N in series [3] came out at 4.
Regarding `CC(=O)N[C@H]1[C@H]([C@H](O)[C@H](O)CO)OC(Oc2ccc3c(C)cc(=O)oc3c2)(C(=O)O)C[C@@H]1O` (some centres unmarked) [MUNANA, 4-methylumbelliferyl-N-acetylneuraminic acid], the Km in series [4] stood at 12.4 ± 4.2 µM; in series [5], 10.5 ± 1.4 µM.
